Measurements published in patent US9133225B2, “Dual targeting anticancer agents” (priority 2013, dated 2015).

Experiments:
A549 cells = assay: MTT cytotoxicity assay, A549; conditions: read-out: cytotoxicity IC50; A549, lung; MTT, 48 h treatment; spread in brackets
Excerpt: (§1) (a) Dulbecco's Modified Eagle Medium (DMEM), Dulbecco's phosphate buffered saline (DPBS), fetal bovine serum (FBS) and 0.25% trypsin/EDTA solutions were purchased from Cellgro (Manassas, Va.). Penicillin-streptomycin solutions were purchased from Mediatech (Manassas, Va.). (b) HeLa (CCL-2TM) cells, A549, A2870, A2870/CP70, MCF-7, PC-3, and MRC-5 cells were purchased from American Type Culture Collection (ATCC, Manassas, Va., USA). (c) HCT116 cells were kindly donated by Laura Trudel (MIT). HeLa, A549, MCF-7, and MRC-5 cells were cultured using DMEM supplemented with 10% FBS and 1% penicillin-streptomycin. A2870, A2870/CP70, and PC-3 cells were cultured in RPMI supplemented with 10% FBS and 1% penicillin-streptomycin. HCT116 cells were cultured in McCoy's supplemented with 10% FBS and 1% penicillin-streptomycin. All cell-culture experiments were performed in the aforementioned media in an incubator operating at 37° C. and in the presence of a humidified atmosphere containing 5.0% CO2. Cells were harvested using a 0.25% trypsin/EDTA solution.
(§2) The cytotoxicity of the compounds was assessed by means of the MTT assay (MTT=3-(4,5-dimethyl-2-thiazolyl)-2,5-diphenyl-2H-tetrazolium bromide). Typically, on day one, ˜1×10^3 cells were seeded into 96-well plates in 100 μL media per well. […] The optical density for each well at 550 nm was measured with a microplate reader.

[1] = tested on: A2780 ovarian carcinoma cells; assay: MTT cytotoxicity assay, A2780; conditions: read-out: cytotoxicity IC50; A2780, ovarian; MTT, 48 h treatment; spread in brackets
Excerpt: as §1, §2

[2] = tested on: A2780/CP70 cells (CisPt resistant); assay: MTT cytotoxicity assay, A2780/CP70; conditions: read-out: cytotoxicity IC50; A2780/CP70, ovarian (CisPt resistant); MTT, 48 h treatment; spread in brackets
Excerpt: as §1, §2

`CC[O][Pt]([NH2])([NH2])([Cl])([Cl])[O]C(=O)CCC(=O)Oc1c(C)c(C)c2c(c1C)CCC(C)(CCCC(C)CCCC(C)CCCC(C)C)O2` (stereo not drawn) [Pt(IV)(α-TOS)(OEt)] showed an IC50 (A549 cells) of 1300 nM, an IC50 [1] of 20 nM and an IC50 [2] of 1100 nM.
